Earlier results in US20080213362A1, “COMPOSITIONS AND METHODS USING TORSEMIDE” (priority 2007, published 2008).

Tests used:
[1] = 2.5 mg once daily
[2] = diabetic or pre-diabetic patient, even during treatment with an anti-diabetic agent

effect on blood sugar levels [2]: worsen blood sugar levels
Compound: Cc1cccc(Nc2ccncc2S(=O)(=O)NC(=O)NC(C)C)c1 [torsemide]
anti-hypertensive effects [1]: statistically significant anti-hypertensive effects
